# Values of other authors, collected in US11129865B2, “NEUPANEX®: neuroprotective, neuroregenerational, and neurogenesis supporting supplement combination” (priority 2017, dated 2021).
# Columns and labels:
# [1] = system: heat shock protein 60; conditions: astrocytes
# [2] = system: heme oxygenase-1; conditions: astrocytes
# [3] = rodents, increased dietary cholesterol
# [4] = supplementary dietary cholesterol
# [5] = system: IL-10
# [6] = system: IL-6 and IL-1 alpha and TNF-alpha
# [7] = system: hippocampal cell culture; conditions: pretreatment, low to moderate concentration (10 nm-100 nm) in culture medium; voltage clamp and toxic NMDA insult
molecule,measurement,setting,value
CC(=O)O[C@H](CC(=O)[O-])C[N+](C)(C)C [acetyl-L-carnitine],heat shock protein 60 expression,[1],up-regulation of heat shock protein 60
same,levels of heme oxygenase-1,[2],increased levels of heme oxygenase-1 were induced in a dose- and time-dependent manner
CC(C)CCC[C@@H](C)[C@H]1CC[C@H]2[C@@H]3CC=C4C[C@@H](O)CC[C@]4(C)[C@H]3CC[C@]12C [cholesterol],brain cholesterol,[3],dramatically increased brain cholesterol
same,autistic behaviors of children with SLOS,[4],reduced or even eliminated
Vitamin D,Increases IL-10,[5],"Vitamin D: Increases IL-10 (43%), Decreases IL-6 & TNF-Alpha,"
same,"reduction in inflammatory cytokines IL-6, IL-1 alpha and TNF-alpha, concentration dependence",[6],lower concentrations of vitamin D were more effective than the higher concentrations
same,neuroprotective effect compared to controls,[7],dramatic neuroprotective effect
